Like-named read-outs stand apart in the source and are kept apart here.
Columns and labels:
[1] = Highest Non-Severely Toxic Dose in dogs; format: in vivo
Description: (§1) Dosage regimen Compound 2 was administered as an oral capsule comprising a pharmaceutically acceptable carrier (diluting agent, plasticizer, disintegrator and lubricant). Compound 2 was administered to the subjects once daily on Days 1 to 21 of a 28-day cycle (QD21/28). An alternative drug administration schedule was considered after establishing the maximum tolerated dose (MTD) of Compound 2 in solid tumor and/or lymphoma subjects using the above schedule, and upon review of the human safety. Subjects were administered Compound 2 in fasting conditions by avoiding food for 2 hours before and 1 hour after drug administration. Dose-escalation of Compound 2 to determine the MTD was guided by the modified continuous reassessment method (mCRM) using a Bayesian logistic regression model (BLRM) following escalation with overdose control (EWOC) principle. Dose escalation began in subjects with advanced solid tumors or lymphomas with a starting dose of Compound 2 at 15 mg/day based on the Highest Non-Severely Toxic Dose (HNSTD) of 3 mg/kg in dogs.

[2] = format: in vivo, human; details: for maximum tolerated dose (MTD): oral
Description: as §1
Dose Limiting Toxicity Definition A DLT was defined as any treatment-emergent adverse event (TEAE) not attributable to disease or disease-related processes that occurred during the observation period (Cycle 1) in each dose-level cohort and was grade 3 or higher according to NCI CTCAE, version 4. Subjects who were unable to complete at least 75% of the prescribed doses (i.e., 16 days) of Compound 2 in the first 21 days as a result of nondisease-related≥grade 2 adverse event (AE) were considered to have a DLT.
Treatment Arms In this open-label, single-arm, dose escalation study, each subject received Compound 2 orally once daily on Days 1 to 21 of a 28-day cycle.
Safety Parameters The safety profile was based on AEs, physical examination findings, vital sign measurements, clinical laboratory measurements, and ECG recordings. All subjects receiving at least 1 dose of Compound 2 were included in the safety analyses.

[3] = system: advanced solid tumor or lymphoma; experiment: Phase 1 clinical study: tumor response (RECIST v1.1) and progression free survival, overall population; format: in vivo, human
Description: (§2) • 1. Has a histologically or cytologically documented advanced solid tumor or lymphoma that has relapsed from or is refractory to standard treatment, or for which no standard treatment is available. • 2. Man or woman≥18 years old. • 3. Has an Eastern Cooperative Oncology Group (ECOG) performance status 0-1. • 4. Has adequate bone marrow function, adequate renal function, adequate hepatic function, and adequate blood clotting function.
(§3) Tumor assessment Tumor assessment was performed at baseline, within every 2 cycles while the subject remained on study for the first 9 cycles and then every 3 cycles thereafter (start of Cycles 3, 5, 7, and 9, then Cycles 12, 15, etc.).
(§4) Tumor Response Response assessment was performed according to the Schedule of Events or if disease progression was suspected. Radiographic assessment included computerized tomography (CT) of all affected sites. In addition, subjects with lymphoma underwent a (^18F) fluorodeoxyglucose-positron emission tomography FDG-PET scan. Tumor responses were assessed by the physicians according to RECIST 1.1 criteria for subjects with solid tumors and revised IWG criteria for subjects with lymphoma. Descriptive statistics for the greatest percent change in the sum of longest dimensions (SLD) of measurable tumors were provided. A waterfall plot of the greatest percent change from screening in the SLD for each subject was presented for subjects with advanced solid malignancies and lymphomas. In addition, descriptive statistics for FDG-PET scans were provided for lymphoma subjects according to revised IWG criteria.

Non-Liposarcoma = experiment: Phase 1 clinical study: progression free survival, non-liposarcoma subjects; format: in vivo, human; details: Non-Liposarcoma (N = 14)
Description: as §2, §3, §4

Liposarcoma = experiment: Phase 1 clinical study: progression free survival, liposarcoma subjects; format: in vivo, human; details: Liposarcoma (N = 13)
Description: as §2, §3, §4

[4] = Overall (N = 27), Kaplan-Meier estimate

## CC1(C)CCC2(CC1)N[C@@H](C(=O)N[C@@H]1CC[C@@H](C(N)=O)OC1)[C@H](c1ccnc(Cl)c1F)[C@]21C(=O)Nc2cc(Cl)ccc21.Cc1ccc(S(=O)(=O)O)cc1 [Compound 2, (3′R,4′S,5′R)—N-[(3R,6S)-6-carbamoyltetrahydro-2H-pyran-3-yl]-6″-chloro-4′-(2-chloro-3-fluoropyridin-4-yl)-4,4-dimethyl-2″-oxo-1″,2″-dihydrodispiro[cyclohexane-1,2′-pyrrolidine-3′,3″-indole]-5′-carboxamide mono(4-methylbenzenesulfonate) monohydrate]
[1]
  Highest Non-Severely Toxic Dose (HNSTD): 3 mg/kg
[2]; human, in vivo
  TEAE anemia: 38.2%
  TEAE constipation: 23.5
  TEAE decreased appetite: 50.0%
  TEAE diarrhea: 35.3%
  TEAE dysgeusia: 20.6%
  TEAE dyspnoea: 26.5%
  TEAE fatigue: 52.9%
  TEAE grade 3 or higher in severity: 55.9%
  TEAE hyperglycemia: 29.4%
  TEAE hypoalbuminemia: 32.4%
  TEAE nausea: 64.7%
  TEAE neutropenia: 17.6%
  TEAE peripheral edema: 17.6%
  TEAE thrombocytopenia: 32.4%
  TEAE vomiting: 35.3%
  Treatment emergent adverse events (TEAE) of any grade at any treatment cycle irrespective of causality: 97.1%
  most common drug-related TEAEs: hematological (thrombocytopenia, anemia, neutropenia), gastrointestinal (nausea, vomiting and diarrhea), and fatigue
  total subjects who experienced DLTs: 6 subjects
[2]; QD 21/28 schedule
  maximum tolerated dose (MTD): 120 mg
[2]; QD 28/28 schedule
  maximum tolerated dose (MTD): 90 mg
[2]; patients with hematological malignancies
  dose tolerated: 160 mg
[3]; Overall (N = 27)
  Subjects without Events (Censored) (%): (55.6) %
[3]; [4]
  Progression-Free Survival, Median: 5.72 months
  Rate (%) of Being Alive Without Progresion at Least 3 months: 74.5%
  Rate (%) of Being Alive Without Progresion at Least 6 months: 47.4%
  Rate (%) of Being Alive Without Progresion at Least 9 months: 29.7%
  Rate (%) of Being Alive Without Progresion at Least 12 months: 29.7%
[3]; PFS events, Overall (N = 27)
  Subjects with Events (%): (44.4) %
[3]; RECIST v1.1, out of 23 evaluable subjects
  subjects with stable disease (SD) as the best tumor response: 21 subjects
[3]; of 23 evaluable subjects
  subjects with >10% tumor shrinkage: 3 subjects
Non-Liposarcoma
  Subjects without Events (Censored) (%): (35.7) %
Non-Liposarcoma; Kaplan-Meier estimate
  Progression-Free Survival, Median: 4.04 months
  Rate (%) of Being Alive Without Progresion at Least 3 months: 58.4%
  Rate (%) of Being Alive Without Progresion at Least 6 months: 23.4%
  Rate (%) of Being Alive Without Progresion at Least 9 months: 11.7%
  Rate (%) of Being Alive Without Progresion at Least 12 months: 11.7%
Non-Liposarcoma; PFS events
  Subjects with Events (%): (64.3) %
Liposarcoma
  Subjects without Events (Censored) (%): (76.9) %
Liposarcoma; Kaplan-Meier estimate
  Rate (%) of Being Alive Without Progresion at Least 3 months: 91.7%
  Rate (%) of Being Alive Without Progresion at Least 6 months: 76.4%
  Rate (%) of Being Alive Without Progresion at Least 9 months: 57.3%
  Rate (%) of Being Alive Without Progresion at Least 12 months: 57.3%
Liposarcoma; PFS events
  Subjects with Events (%): (23.1) %
